Where two headings read alike, the source gives them in different places.
Assays:
Assay type in all cases: cell-based
B. subtilis DSM 10 [1] = assay: microbe, parasite or virus in culture
In short: (§1)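 Susceptibility is determined by broth microdilution, with inocula of 5 × 10^5 CFU mL^−1 in cation-adjusted MHB II and 20 h incubation at 37 ± 1 °C. For inhibitor combinations, clavulanic acid (2 mg L^−1) or avibactam (4 mg L^−1) is held constant following EUCAST guidance.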

[2] = test system: E. casseliflavus ATCC 700327; assay: microbe, parasite or virus in culture
In short: as §1

[3] = test system: E. coli Tü20‐025 (clinical isolate); assay: microbe, parasite or virus in culture
In short: as §1

E. faecalis ATCC 29212 = assay: microbe, parasite or virus in culture
In short: as §1

[4] = test system: K. pneumoniae Tü20‐036 (clinical isolate); assay: microbe, parasite or virus in culture
In short: as §1

[5] = test system: S. aureus ATCC 25923 (MSSA); assay: microbe, parasite or virus in culture
In short: as §1

[6] = test system: S. aureus NCTC 10442 (MRSA); assay: microbe, parasite or virus in culture
In short: as §1

[7] = test system: S. saprophyticus ATCC 15305; assay: microbe, parasite or virus in culture
In short: as §1

[8] = test system: CTZ‐resistant P. aeruginosa (n = 2)
Procedure: The minimum inhibitory concentration (MIC) of the β‐lactam–peptide conjugates was determined by broth microdilution as previously described.^[ [17] ^] Briefly, in cation‐adjusted MHB II medium, a twofold serial dilution of the compounds was prepared in 96‐well round‐bottom polystyrene or polypropylene microtiter plates with each well containing 50 µL. The plates were inoculated with 50 µL bacterial suspension and the final inoculum, in a total volume of 100 µL, contained 5 × 10^5 CFU mL^−1. The microplates were incubated for 20 h at 37 ± 1 °C. The lowest concentration preventing visible bacterial growth was considered the MIC value. For susceptibility testing of combinations of β‐lactamase‐inhibitors with either a β‐lactam antibiotic or a β‐lactam–peptide conjugate, fixed concentrations of the inhibitors according to the EUCAST (European Committee on Antimicrobial Susceptibility Testing) guidelines (clavulanic acid = 2 mg L^−1, avibactam = 4 mg L^−1) were used.

B. subtilis DSM 10 [9] = assay: Time‐kill assay; conditions: for killing mechanism (time‐kill kinetics, CFU mL^−1): 50 or 100 µM, over 24 h
Procedure: For determination of time‐kill kinetics of the β‐lactam–peptide conjugates and their parent β‐lactams, 14 mL of cation‐adjusted MHB II medium was inoculated with an B. subtilis DSM 10 overnight culture to obtain an OD600 of 0.5, corresponding to ≈10^8 CFU mL^−1. To this exponentially growing culture, 50 or 100 µM of each of the antibiotics was added except for a negative control culture which was treated with only water. The bacterial cultures were incubated at 30 °C and 200 rpm and the OD600 was measured on 1 mL aliquots taken at 0, 10, 30, 45, 60, 90, 120, 240, 360, 480 and 1440 min. Additionally, at the same time points, 15 µL of serial tenfold dilutions of the bacterial suspension were plated onto MHB II agar plates. The agar plates were incubated overnight at 30 °C. The next day, bacterial colonies were counted and the CFU mL^−1 were calculated (limit of detection: 10^1.8 CFU mL^−1). For each antibiotic the assay was performed in triplicate (three biological replicates).

Compound | MIC (B. subtilis DSM 10 [1]; Bacillus subtilis, DSM10, B. subtilis DSM 10, median (n = 3), read-out: MIC) [µg/mL] | MIC ([2]; Enterococcus casseliflavus, ATCC700327, E. casseliflavus ATCC 700327, median (n = 3), read-out: MIC) [µg/mL] | MIC ([3]; Escherichia coli, E. coli Tü20‐025, median (n = 3), read-out: MIC) [µg/mL] | MIC (E. faecalis ATCC 29212; Enterococcus faecalis, ATCC29212, E. faecalis ATCC 29212, median (n = 3), read-out: MIC) [µg/mL] | MIC ([4]; Klebsiella pneumoniae) [µg/mL] | MIC ([5]; Staphylococcus aureus, S. aureus ATCC 25923 (MSSA), median (n = 3), read-out: MIC) [µg/mL] | MIC ([6]; Staphylococcus aureus, S. aureus NCTC 10442 (MRSA), median (n = 3), read-out: MIC) [µg/mL] | MIC ([7]; Staphylococcus saprophyticus, ATCC15305, S. saprophyticus ATCC 15305, median (n = 3), read-out: MIC) [µg/mL] | MIC range ([8]; CTZ‐resistant P. aeruginosa (n = 2)) [µg/mL] | killing mechanism (time‐kill kinetics, CFU mL^−1) (B. subtilis DSM 10 [9]) | MIC (B. subtilis DSM 10 [1]; DSM 10, 20 h) [µg/mL] | MIC ([2]; ATCC 700327, 20 h) [µg/mL] | MIC ([3]; Tü20‐025 (clinical isolate, 20 h)) [µg/mL] | MIC (E. faecalis ATCC 29212; ATCC 29212, 20 h) [µg/mL] | MIC ([4]; Tü20‐036 (clinical isolate, 20 h)) [µg/mL] | MIC ([5]; ATCC 25923, 20 h) [µg/mL] | MIC ([6]; NCTC 10442, 20 h) [µg/mL] | MIC ([7]; ATCC 15305, 20 h) [µg/mL] | MIC range ([8]; CTZ‐resistant (n = 2, 20 h)) [µg/mL] | drop in CFU (to the detection limit) (B. subtilis DSM 10 [9]; 100 µM, after 6 h) [log units]
CC(C)(O/N=C(\C(=O)N[C@@H]1C(=O)N2C(C(=O)[O-])=C(C[n+]3ccccc3)CS[C@H]12)c1csc(N)n1)C(=O)O [CTZ, ceftazidime, reference compound] | 8 | > 2050 | 2 | 4 | 0.125 | 16 | 16 | 32 | 32 to 64 | time‐dependent killing mechanism | – | – | – | – | – | – | – | – | – | –
CC(C)(O/N=C(\C(=O)N[C@@H]1C(=O)N2C(C(=O)[O-])=C(C[n+]3ccccc3)CS[C@H]12)c1csc(N)n1)C(=O)NCCCCCCN1C(=O)CC(SC[C@H](NC(=O)[C@H](CCCNC(=N)N)NC(=O)[C@H](CCCNC(=N)N)NC(=O)[C@H](CCCNC(=N)N)NC(=O)[C@H](CCCNC(=N)N)NC(=O)[C@H](CCCNC(=N)N)NC(=O)[C@@H](N)CCCNC(=N)N)C(N)=O)C1=O (stereo partly drawn) [CTZ-R6] | – | – | – | – | – | – | – | – | – | concentration‐dependent killing mechanism | 0.008 | 0.25 | 0.5 | <0.004 | 0.0625 | 4 | 2 | 0.02 | 2 to 16 | 6
